In patent US9327060B2 (CARDINAL HEALTH SWITZERLAND 515 GmbH, priority 2009, dated 2016):

What was measured:
[1] = porcine drug elution PK study of the dual drug eluting coating; type: in vivo; details: after eight (8) days of implantation; stent of FIG. 11 (sirolimus and cilostazol in one EVA/BMA layer, 100 μg BMA overcoat)
Excerpt: Another critical parameter for the performance of the thrombus resistance of a device coated with cilostazol is the duration of the drug release from the coating. This is of particular significance in the two weeks after device implantation. In the porcine drug elution PK studies of the dual drug eluting coating, both cilostazol and sirolimus were slowly released from the coating, resulting in a sustained drug release profile. The purpose of the porcine PK study is to assess the local pharmacokinetics of a drug eluting stent at a given implantation time. Normally three stents are implanted in three different coronary arteries in a pig for a given time point and then retrieved for total drug recovery analysis. The stents are retrieved at predetermined time points; namely, 1, 3 and 8 days. The stents are extracted and the total amount of drug remaining on the stents is determined by analysis utilizing HPLC (high performance liquid chromatography) for total drug amount. The difference between the original amount of drug on the stent and the amount of drug retrieved at a given time represents the amount of drug released in that period. The continuous release of drug into surrounding arterial tissue is what prevents the neointimal growth and restenosis in the coronary artery. A normal plot represents the percentage of total drug released (%, y-axis) vs. time of implantation (day, x-axis). […]

[2] = Excerpt: Referring to FIG. 29, there is illustrated the cumulative in vivo drug release percentages from a reservoir eluting stent for each drug over a thirty day period. Curve 2902 represents the profile for cilostazol while curve 2904 represents the profile for sirolimus. FIG. 30 is a graphical representation of the amount of each drug, in micrograms, released in vivo. Curve 3002 represents the profile for cilostazol while curve 3004 represents the profile for sirolimus. The curves in the figures illustrate that both the drugs elute independently of each other with minimal or substantially no interaction. […] Since the amount of drug (by weight) is different for the drugs in their respective reservoirs, the total amount of drug released at thirty (30) days was higher for sirolimus as compared to cilostazol.
[3] = test system: platelet deposition and thrombus formation on the stent surface; test: in vitro bovine blood loop model; details: sirolimus/cilostazol combination coatings, FIG. 8
Excerpt: The anti-thrombotic efficacy of the above-described three configurations is illustrated in FIG. 8. FIG. 8 illustrates the anti-thrombotic properties of the sirolimus/cilostazol combination coatings described above in an in vitro bovine blood loop model. In the in vitro bovine blood loop model, fresh bovine blood is heparinized to adjust for […] (ACT) of about two hundred (200) seconds. The platelet content in the blood is labeled through the use of Indium 111. In the study, a stent is deployed in a silicone tube, which is part of a closed loop system for blood circulation. The heparinzed blood is circulated through the closed loop system by means of a circulating pump. Blood clots and thrombus builds up on a stent surface over time and reduces the flow rate of blood through the stented loop. The flow is stopped when the flow rate is reduced to fifty (50) percent of the starting value or at ninety (90) minutes if none of the tested stent reduces the flow by fifty (50) percent. The total radioactivity (In 111) on the stent surface is counted by a […] and normalized with the control unit, set as one hundred (100) percent in the chart. […]

[4] = in vitro release kinetics of sirolimus and cilostazol from coated stent; type: physicochemical; details: stent of FIG. 11 (sirolimus and cilostazol in one EVA/BMA layer, 100 μg BMA overcoat); FIG. 10

Row | Structure (SMILES) | drug remained in the drug coating [1] | cumulative in vivo elution [2] | thrombus formation [3] | in vitro release [4]
1 | CO[C@H]1C[C@@H]2CC[C@@H](C)[C@@](O)(O2)C(=O)C(=O)N2CCCC[C@H]2C(=O)O[C@H]([C@H](C)C[C@@H]2CC[C@@H](O)[C@H](OC)C2)CC(=O)[C@H](C)/C=C(\C)[C@@H](O)[C@@H](OC)C(=O)[C@H](C)C[C@H](C)/C=C/C=C/C=C/1C [Rapamycin] | ~80% | sixty (60) to seventy (70) |  | 
2 | O=C1CCc2cc(OCCCCc3nnnn3C3CCCCC3)ccc2N1 [cilostazol, 6[4-(1-cyclohexyl-1H-tetrazol-5-yl)-butoxy]-3,4-dihydro-2-(1H)-quinolinone] | ~80% | sixty (60) to seventy (70) | significantly reduces thrombus formation | ~35%
